According to patent EP3048886B1, “3, 4-BIS-BENZYLSULFONYLBUTANENITRILE AND ITS PHARMACEUTICAL USE” (Olatec Therapeutics LLC, priority 2013, dated 2015):

Assays:
[1] = tested on: arachidonic acid-induced ear swelling; test: topical arachidonic acid-induced ear swelling model in mice; type: in vivo; conditions: inhibition of ear swelling vs vehicle, male ICR mice; topical application 30 min before and 15 min after arachidonic acid; measured at 90 minutes after arachidonic acid application
Experimental: The test compound, indomethacin (positive control), and vehicle were evaluated for anti-inflammatory activity in a topical arachidonic acid-induced ear swelling model in mice.
Male ICR mice weighing 22 ± 2 g were used and randomly divided; the test compound and vehicle control had 10 mice, and indomethacin had 5 mice. Arachidonic Acid (0.5 mg in 20 µl of acetone:ethanol/1:1) was applied topically to the anterior and posterior surfaces of the right ear of each mouse. Test substances and vehicle, as listed in Table 2 were similarly applied 30 min before and 15 min after arachidonic acid application. The thickness of the right ear and the left ear was measured and the difference calculated as an indication of the inflammation in the right ear. Ear swelling was measured by a Dyer model micrometer gauge at 60 and 90 minutes after arachidonic acid application as an index of inflammation. Percent inhibition was calculated according to the formula: Ic - It/Ic x 100, where Ic and It refers to increase of ear thickness (mm) in control and treated mice, respectively. ANOVA and Dunnett's test were employed to ascertain significant difference between vehicle control and treated groups. Significance is set at P<0.05 level.

[2] = tested on: tail flick reaction to heat; test: tail flick test (49°C water bath) in mice; conditions: mouse, in vivo
Experimental: The tail flick test is a test of the pain response in animals. The tail flick test is used in basic pain research and to measure the effectiveness of analgesics, by observing the tail flick reaction to heat in an animal. This test assesses the nociceptive response to a local pain stimulus, and the ability of a drug to inhibit this response.
Vehicle control (DMSO) and test compound 3,4-bis-benzylsulfonylbutanenitrile in DMSO were administered by oral gavage to mice with a volume of 5 mL/kg, immediately prior to testing, at time zero. The test compound was administered at a dosage of 500 mg/kg in DMSO. Positive control morphine in water was administered at time zero by subcutaneous injection at 8 mg/kg to mice. […] The purpose of morphine is not to serve as a comparison with the test compound. Each group had 10 mice.
The response of mice to heat stimulus was evaluated by measuring the time of tail-flick or tail-flick latency from 49°C water bath. Briefly, the animal was held with its tail hanging down. Approximately 5.08 cm (2 inches) of the tail was immersed in a beaker of water at 38±1 °C for about 30 seconds, and this was done twice to acclimate the animal to the procedure.
Subsequently, approximately 5.08 cm (2 inches) of the tail was immersed in a beaker of water at 49±1 °C, at which point a timer was started. […]

N#CCC(CS(=O)(=O)Cc1ccccc1)S(=O)(=O)Cc1ccccc1 (centres unmarked) [3,4-bis-benzylsulfonylbutanenitrile]
% Inhibition [1]: 34%

CN1CC[C@]23c4c5ccc(O)c4O[C@H]2[C@@H](O)C=C[C@H]3[C@H]1C5 [morphine]
tail flick latency compared with vehicle-treated mice [2]: not
